Experimental data from US6960606B2, “Adamantyl Thiazole Thioureas” (Parker Hughes Institute, priority 2000, dated 2005).
Read-outs that look alike come from different tables or passages of the source.

Experiments:
[1] = system: HIV-1 strain HTLVIIIB; assay: Inhibition of HIV-1 HTLVIIIB replication in PBMC (p24 antigen EIA); format: cell-based; conditions: for IC50: HIV-1 HTLVIIIB in human PBMC, p24 on day 7, read-out: IC50 HTLVHIB
Procedure: (§1) Normal human peripheral blood mononuclear cells (PBMNC) from HIV-negative donors were cultured 72 hours in RPMI 1640 supplemented with 20% (v/v) heat-inactivated fetal bovine serum (FBS), 3% interleukin-2, 2 mM L-glutamine, 25 mM HEPES, 2 g/L NaHCO3, 50 μg/mL gentamicin, and 4 μg/mL phytohemagglutinin prior to exposure to the HIV-1 strain HTLVIIIB. The cells were then infected with virus at a multiplicity of infection (MOI) of 0.1 during a 1-hour adsorption period at 37° C. in a humidified 5% CO2 atm. Subsequently, cells were cultured in 96-well microtiter plates (100 μl/well; 2×10^6 cells/mL) in the presence of various inhibitor concentrations. Aliquots of culture supernatants were removed from the wells on the 7th day after infection for p24 antigen assays. The applied p24 enzyme immunoassay (EIA) was the unmodified kinetic assay commercially available from Coulter Corporation/Immunotech, Inc. (Westbrooke, Me.), which utilizes a murine mAb to HIV core protein coated onto microwell strips to which the antigen present in the test culture supernatant samples binds. Percent viral inhibition was calculated by comparing the p24 values from the test substance-treated infected cells with p24 values from untreated infected cells (i.e., virus controls). The effects of various treatments on cell viability were also examined and the results were expressed as the cytotoxic concentration (CC)50 values. The selectivity indices (SI) were calculated using the formula: SI=CC50/IC50.

[2] = system: NNRTI-resistant HIV-1 strain A17 with a Y181C mutation in RT; assay: microbe, parasite or virus in culture; format: cell-based; conditions: for effective concentrations against NNRTI-resistant HIV-1 isolate A17 (in words): both NNRTI-resistant isolates
[3] = system: A17 variant with Y181C plus K103N mutations in RT; assay: microbe, parasite or virus in culture; format: cell-based, HIV-1; conditions: for effective concentrations against NNRTI-resistant HIV-1 isolate A17 variant (in words): both NNRTI-resistant isolates
[4] = system: human peripheral blood mononuclear cells (PBMC); assay: Cell viability / cytotoxicity in PBMC; format: cell-based; conditions: for CC50: cytotoxic concentration, PBMC viability
Procedure: as §1

[5] = Human immunodeficiency virus 1, 168 h
[6] = Human immunodeficiency virus 1, read-out: IC50 A17
[7] = Human immunodeficiency virus 1, read-out: IC50 A17 variant
[8] = NNRTI-resistant HIV, A17 (Y181C), read-out: IC50 A17
[9] = NNRTI-resistant HIV, A17 variant (Y181C plus K103N), read-out: IC50 A17 variant

Molecule: CC(C)Nc1cccnc1N1CCN(C(=O)c2cc3cc(NS(C)(=O)=O)ccc3[nH]2)CC1 [Delavirdine, reference compound]
- IC50 [1, 5]: 0.009 µM
- IC50 [2, 6]: 50 µM
- IC50 [3, 7]: > 100 µM

Molecule: Cc1ccnc2c1NC(=O)c1cccnc1N2C1CC1 [Nevirapine, reference compound]
- IC50 [1, 5]: 0.034 µM
- IC50 [2, 6]: > 100 µM
- IC50 [3, 7]: > 100 µM

Molecule: N-[1-(1-Adamantyl)methyl]-N′-[2-(thiazolyl)]thiourea [Compound 5]
- IC50 values, inhibition of HIV-1 replication (in words) [1]: subnanomolar
- IC50 [1]: < 0.001 µM
- IC50 [2, 8]: 0.6 µM
- effective concentrations against NNRTI-resistant HIV-1 isolate A17 (in words) [2]: nanomolar to low micromolar
- CC50 [4]: 40 µM
- effective concentrations against NNRTI-resistant HIV-1 isolate A17 variant (in words) [3]: nanomolar to low micromolar

Molecule: N-[1-(1-Furoylmethyl)]-N′-[2-(thiazolyl)]thiourea [Compound 6]
- IC50 values, inhibition of HIV-1 replication (in words) [1]: subnanomolar
- IC50 [1]: < 0.001 µM
- effective concentrations against NNRTI-resistant HIV-1 isolate A17 (in words) [2]: nanomolar to low micromolar
- toxicity to PBMC (in words) [4]: minimally toxic
- CC50 [4]: > 100 µM
- IC50 [3, 9]: 0.6 µM
- effective concentrations against NNRTI-resistant HIV-1 isolate A17 variant (in words) [3]: nanomolar to low micromolar

Molecule: N-[2-(1-Cyclohexenylethyl)]-N′-[2-(thiazolyl)]thiourea [Compound 2]
- IC50 [1]: 0.007 µM
- IC50 [2, 8]: 0.9 µM
- CC50 [4]: 4 µM
- IC50 [3, 9]: > 100 µM

Molecule: N-[2-(2-Indole)ethyl]-N′-[2-(thiazolyl)]thiourea [Compound 8]
- IC50 values, inhibition of HIV-1 replication (in words) [1]: subnanomolar
- IC50 [1]: < 0.001 µM
- effective concentrations against NNRTI-resistant HIV-1 isolate A17 (in words) [2]: nanomolar to low micromolar
- CC50 [4]: 28 µM
- effective concentrations against NNRTI-resistant HIV-1 isolate A17 variant (in words) [3]: nanomolar to low micromolar

Molecule: N-[2-(2-Piperdine)ethyl]-N′-[2-(thiazolyl)]thiourea [Compound 9]
- IC50 [1]: > 100 µM

Molecule: N-[2-(2-Thiophenylethyl)]-N′-[2-(thiazolyl)]thiourea [Compound 1]
- IC50 values, inhibition of HIV-1 replication (in words) [1]: subnanomolar
- IC50 [1]: < 0.001 µM
- IC50 [2, 8]: > 100 µM
- CC50 [4]: 71 µM

Molecule: N-[2-(4-Hydroxyphenyl)ethyl]-N′-[2-(thiazolyl)]thiourea [Compound 10]
- IC50 [1]: > 100 µM

Molecule: N-[2-(4-Methylphenyl)ethyl]-N′-[2-(thiazolyl)]thiourea [Compound 4]
- IC50 [1]: 0.07 µM
- CC50 [4]: > 100 µM
- IC50 [3, 9]: > 100 µM

Molecule: N-[2-(Phenoxyethyl)]-N′-[2-(thiazolyl)]thiourea [Compound 3]
- IC50 values, inhibition of HIV-1 replication (in words) [1]: subnanomolar
- IC50 [1]: < 0.001 µM
- CC50 [4]: > 100 µM
- IC50 [3, 9]: > 100 µM

Molecule: N-[2-Pyridylethyl]-N′-[2-(thiazolyl)]thiourea [Compound 11]
- IC50 [1]: 1 µM
- CC50 [4]: 100 µM

Molecule: N-[3-(2-Imidazole)propyl]-N′-[2-(thiazolyl)]thiourea [Compound 7]
- IC50 values, inhibition of HIV-1 replication (in words) [1]: subnanomolar
- IC50 [1]: < 0.001 µM
- IC50 [2, 8]: > 100 µM
- CC50 [4]: 35 µM
- IC50 [3, 9]: > 100 µM

Molecule: N-[3-(Pyrrolidinone)propyl]-N′-[2-(thiazolyl)]thiourea [Compound 12]
- IC50 [1]: 9 µM
- CC50 [4]: 18 µM
